Molecular target: hROMK (human Kir1.1) (Homo sapiens (Human), UniProt P48048)
Experiment: Thallium Flux Assay
Assay type: cell-based
Details: CHO T-Rex hROMK stable cell line, 10-point concentration response; read-out: hROMK Th+ Flux IC50
Method: Solutions and reagents: Thallium flux assay was performed using FluxOR kit (F10017, Life Technologies). Loading buffer, assay buffer and stimulus buffer were prepared using kit components. HBSS (Hank's balanced salt solution, Cat #14025-092) was purchased separately from Life Technologies.
To prepare 10 ml of loading buffer: 10 μl of FluxOR dye (reconstituted in DMSO) was first added to 100 μl of powerload concentrate and this mix along with 100 μl of Probenicid (100×) was then added to 9.79 ml of HBSS. Assay buffer (10 ml) was prepared by addition of 2 ml of FluxOR chloride free buffer (5×), 100 μl of Probenicid (100×), and 0.2 ml of Ouabain (13.77 mM) to 7.7 ml of deionized water. Stimulus buffer was composed of 15 mM Tl2SO4, 0.75 mM K2SO4 in FluxOR chloride free buffer (diluted to 1× using deionized water). The final concentration of Tl2SO4 and K2SO4 in the assay plate was 3 mM and 0.15 mM, respectively.
Plating and induction of cells: The CHO T-Rex hROMK (human Kir1.1) stable cell line was maintained in Ham's F12 media supplemented with 10% FBS, 1% Penicillin-Streptomycin, 500 μg/ml Zeocin and 10 μg/ml Blasticidin at 37° C. in a 5% CO2 incubator. One day before the experiment, the cells were dissociated by incubation with Versene solution (15040-066, Life Technologies) for 10 minutes at 37° C. followed by addition of growth media. The cell suspension was centrifuged at 1200 rpm for 5 min. After discarding the supernatant, the cells were resuspended in fresh growth media and cell concentration was determined using a hemocytometer. Next, 0.5 μg/ml of Doxycycline was added to the cell suspension to induce hROMK channel expression and 50 μl (10,000 cells/well) of cell suspension was added to each well of a poly-D lysine coated 384 well black, optically clear bottom plate (6007718, Perkin Elmer). The assay plate was kept at 37° C. in a 5% CO2 incubator.
Assay protocol: On the day of experiment, media was removed and loading buffer was added (30 μl/well) to the assay plate. The cells were incubated in the loading buffer for 30 minutes at 37° C. The loading buffer was then replaced by assay buffer (30 μl/well) followed by addition of test compounds or controls. The cells were incubated with compounds for 30 minutes and the plate was then mounted on FlexStation (Molecular Devices) for fluorescence read out with excitation and emission wavelengths at 488 and 525 nm, respectively. Each well was read for 90 sec at 2 sec interval and the stimulus buffer was added after 20 seconds of baseline recording. The final DMSO concentration was either 0.5 or 1% in the assay plate. […] controls were defined by addition of DMSO or 3 μM of a standard ROMK inhibitor, respectively, to the wells instead of a test compound.
A 10-point concentration response curve was used to estimate the IC50 value of test compounds.
The data in Table 3 is reported with two significant figures.

Chain of hROMK (human Kir1.1) (P48048 whole entry): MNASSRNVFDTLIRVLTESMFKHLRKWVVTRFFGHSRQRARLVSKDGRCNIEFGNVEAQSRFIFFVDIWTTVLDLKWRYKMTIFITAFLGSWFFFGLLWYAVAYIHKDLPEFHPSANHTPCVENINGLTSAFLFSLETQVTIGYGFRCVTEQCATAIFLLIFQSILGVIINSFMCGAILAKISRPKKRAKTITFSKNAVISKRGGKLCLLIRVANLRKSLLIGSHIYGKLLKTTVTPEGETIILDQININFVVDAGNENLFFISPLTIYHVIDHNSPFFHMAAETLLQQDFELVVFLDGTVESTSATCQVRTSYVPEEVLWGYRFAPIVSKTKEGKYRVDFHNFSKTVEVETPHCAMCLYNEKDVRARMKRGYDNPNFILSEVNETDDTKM

Row | SMILES | IC50
1 | Cn1c(=O)oc2ccc(C(O)CN3CCc4nc(-n5ncc6c(C#N)cccc65)ncc4C3)cc21 (single isomer, unassigned) [Example 3-II, 1-(6-(2-hydroxy-2-(3-methyl-2-oxo-2,3-dihydrobenzo[d]oxazol-5-yl)ethyl)-5,6,7,8-tetrahydropyrido[4,3-d]pyrimidin-2-yl)-1H-indazole-4-carbonitrile] | 1600 nM
2 | O=C1OCc2cc(CN3CCc4cc(Nc5ccc6c(c5)COC6=O)ccc4C3)ccc21 [Example 15, 5-((6-((1-oxo-1,3-dihydroisobenzofuran-5-yl)amino)-3,4-dihydroisoquinolin-2(1H)-yl)methyl)isobenzofuran-1(3H)-one] | 21 nM
3 | Cc1c(C(O)CN2CCc3nc(N4CCc5c(C#N)cccc54)ncc3C2)ccc2c1COC2=O (single isomer, unassigned) [Example 65-II, 1-(6-(2-hydroxy-2-(4-methyl-1-oxo-1,3-dihydroisobenzofuran-5-yl)ethyl)-5,6,7,8-tetrahydropyrido[4,3-d]pyrimidin-2-yl)indoline-4-carbonitrile] | 376 nM
4 | N#Cc1cccc2c1ccn2-c1ncc2c(n1)CCN(CC(O)c1ccc3c(c1)COC3=O)C2 (single isomer, unassigned) [Example 18-II, 1-(6-(2-hydroxy-2-(1-oxo-1,3-dihydro-isobenzofuran-5-yl)ethyl)-5,6,7,8-tetrahydropyrido[4,3-d]pyrimidin-2-yl)-1H-indole-4-carbonitrile] | 580 nM
5 | N#Cc1cnc2c(ccn2-c2ncc3c(n2)CCN(Cc2ccc4c(c2)COC4=O)C3)c1 [Example 46, 1-(6-((1-oxo-1,3-dihydroisobenzofuran-5-yl)methyl)-5,6,7,8-tetrahydropyrido[4,3-d]pyrimidin-2-yl)-1H-pyrrolo[2,3-b] pyridine-5-carbonitrile] | 1500 nM
6 | Cc1c(C(O)CN2CCc3nc(-n4ccc5cc(C#N)cnc54)ncc3C2)ccc2c1COC2=O (single isomer, unassigned) [Example 44-I, 1-(6-(2-hydroxy-2-(4-methyl-1-oxo-1,3-dihydroisobenzofuran-5-yl)ethyl)-5,6,7,8-tetrahydropyrido[4,3-d]pyrimidin-2-yl)-1H-pyrrolo[2,3-b]pyridine-5-carbonitrile] | 2100 nM
7 | Cc1c(C(O)CN2CCc3nc(-n4cnc5ccccc54)ncc3C2)ccc2c1COC2=O (single isomer, unassigned) [Example 67-I, 5-(2-(2-(1H-benzo[d]imidazol-1-yl)-7,8-dihydropyrido[4,3-d]pyrimidin-6(5H)-yl)-1-hydroxyethyl)-4-methyliso-benzofuran-1(3H)-one] | 157 nM
8 | Cc1c(C(O)CN2CCc3nc(-n4ncc5ncccc54)ncc3C2)ccc2c1COC2=O (single isomer, unassigned) [Example 41-II, 5-(2-(2-(1H-pyrazolo[4,3-b]pyridin-1-yl)-7,8-dihydropyrido[4,3-d]pyrimidin-6(5H)-yl)-1-hydroxyethyl)-4-methylisobenzofuran-1(3H)-one] | 1200 nM
9 | Cc1c(CN2CCc3nc(-n4cc(C#N)c5ccccc54)ncc3C2)ccc2c1COC2=O [Example 23, 1-(6-((4-methyl-1-oxo-1,3-dihydro-isobenzofuran-5-yl)methyl)-5,6,7,8-tetrahydropyrido[4,3-d]pyrimidin-2-yl)-1H-indole-3-carbonitrile] | 1100 nM
10 | N#Cc1ccc2c(ccn2-c2ncc3c(n2)CCN(CC(O)c2ccc4c(c2)COC4=O)C3)c1 (single isomer, unassigned) [Example 17-II, 1-(6-(2-hydroxy-2-(1-oxo-1,3-dihydro-isobenzofuran-5-yl)ethyl)-5,6,7,8-tetrahydropyrido[4,3-d]pyrimidin-2-yl)-1H-indole-5-carbonitrile] | 850 nM
11 | Cn1c(=O)oc2ccc(C(O)CN3CCc4nc(-n5ncc6c(C#N)cccc65)ncc4C3)cc21 (single isomer, unassigned) [Example 3-I, 1-(6-(2-hydroxy-2-(3-methyl-2-oxo-2,3-dihydrobenzo[d]oxazol-5-yl)ethyl)-5,6,7,8-tetrahydropyrido[4,3-d]pyrimidin-2-yl)-1H-indazole-4-carbonitrile] | 740 nM
12 | Cc1c(CN2CCc3nc(-n4cnc5c(C#N)cccc54)ncc3C2)ccc2c1COC2=O [Example 40, 1-(6-((4-methyl-1-oxo-1,3-dihydro-isobenzofuran-5-yl)methyl)-5,6,7,8-tetrahydropyrido[4,3-d]pyrimidin-2-yl)-1H-benzo[d]imidazole-4-carbonitrile] | 3400 nM
13 | Cc1c(CN2CCc3cc(Nc4cccc(F)c4C#N)ccc3C2)ccc2c1COC2=O [Example 39, 2-fluoro-6-((2-((4-methyl-1-oxo-1,3-dihydroisobenzofuran-5-yl)methyl)-1,2,3,4-tetrahydroisoquinolin-6-yl)amino)benzonitrile] | 550 nM
14 | Cn1c(=O)oc2ccc(CN3CCc4cc(Nc5ccc(C#N)c(F)c5)ccc4C3)cc21 [Example 48, 2-fluoro-4-((2-((3-methyl-2-oxo-2,3-dihydrobenzo[d]oxazol-5-yl)methyl)-1,2,3,4-tetrahydroisoquinolin-6-yl)amino)benzonitrile] | 600 nM
15 | COC(=O)c1cnc2ccn(-c3ncc4c(n3)CCN(CC(O)c3ccc5c(c3C)COC5=O)C4)c2c1 (single isomer, unassigned) [Example 52-I, methyl 1-(6-(2-hydroxy-2-(4-methyl-1-oxo-1,3-dihydroisobenzofuran-5-yl)ethyl)-5,6,7,8-tetrahydropyrido[4,3-d]pyrimidin-2-yl)-1H-pyrrolo[3,2-b]pyridine-6-carboxylate] | 1240 nM

The remaining lines, values ahead:

Row | IC50 | SMILES
16 | 2100 nM | Cc1c(C(CO)N2CCc3nc(Nc4ccc(C#N)c(F)c4)ncc3C2)ccc2c1COC2=O (single isomer, unassigned) [Example 29-II, 2-fluoro-4-((6-(2-hydroxy-1-(4-methyl-1-oxo-1,3-dihydroisobenzofuran-5-yl)ethyl)-5,6,7,8-tetrahydropyrido [4,3-d]pyrimidin-2-yl)amino)benzonitrile]
17 | 460 nM | Cc1c(C(O)CN2CCc3nc(-n4ccc5c(C#N)cccc54)ncc3C2)ccc2c1COC2=O (single isomer, unassigned) [Example 1-II, 1-(6-(2-hydroxy-2-(4-methyl-1-oxo-1,3-dihydroisobenzofuran-5-yl)ethyl)-5,6,7,8-tetrahydropyrido[4,3-d]pyrimidin-2-yl)-1H-indole-4-carbonitrile]
18 | 4700 nM | Cc1c(C(CO)N2CCc3nc(-n4ccc5cc(C#N)cnc54)ncc3C2)ccc2c1COC2=O (single isomer, unassigned) [Example 45-I, 1-(6-(2-hydroxy-1-(4-methyl-1-oxo-1,3-dihydroisobenzofuran-5-yl)ethyl)-5,6,7,8-tetrahydropyrido[4,3-d]pyrimidin-2-yl)-1H-pyrrolo[2,3-b]pyridine-5-carbonitrile]
19 | 568 nM | Cc1c(C(O)CN2CCc3nc(Nc4cncc(C#N)c4)ncc3C2)ccc2c1COC2=O (single isomer, unassigned) [Example 61-I, 5-((6-(2-hydroxy-2-(4-methyl-1-oxo-1,3-dihydroisobenzofuran-5-yl)ethyl)-5,6,7,8-tetrahydropyrido[4,3-d]pyrimidin-2-yl)amino)nicotinonitrile]
20 | 960 nM | N#Cc1ccc(Nc2ncc3c(n2)CCN(Cc2ccc4c(c2)COC4=O)C3)cc1F [Example 2]
21 | 1800 nM | Cc1c(C(CO)N2CCc3cc(Nc4ccc(C#N)c(F)c4)ccc3C2)ccc2c1COC2=O (single isomer, unassigned) [Example 33-II, 2-fluoro-4-((2-(2-hydroxy-1-(4-methyl-1-oxo-1,3-dihydroisobenzofuran-5-yl)ethyl)-1,2,3,4-tetrahydroisoquinolin-6-yl)amino) benzonitrile]
22 | 410 nM | Cc1c(C(O)CN2CCc3nc(-n4ncc5c(C#N)cccc54)ncc3C2)ccc2c1COC2=O (single isomer, unassigned) [Example 12-II, 1-(6-(2-hydroxy-2-(4-methyl-1-oxo-1,3-dihydroisobenzofuran-5-yl)ethyl)-5,6,7,8-tetrahydropyrido[4,3-d]pyrimidin-2-yl)-1H-indazole-4-carbonitrile]
